Structures can show the parent of a compound that is named as a salt.
Assay: solubility of sildenafil citrate as a function of pH
Format: physicochemical
Settings: at pH values greater than 6
Description: Matrix formulations according to the present invention may contain a buffering agent. This is particularly useful when the formulation contains sildenafil citrate. A buffering agent of particular interest is aspartic acid. When it forms part of a matrix tablet, aspartic acid acts as a buffering agent to maintain a low pH at the surface of the tablet. […] When present, aspartic acid will typically make up 15–30% by weight of the formulation.

With `CCCc1nn(C)c2c(=O)[nH]c(-c3cc(S(=O)(=O)N4CCN(C)CC4)ccc3OCC)nc12` [sildenafil citrate, Sildenafil citrate] the solubility was “low solubility”.

From patent US6964780B1, “Controlled-release pharmaceutical formulations” (Pfizer Inc., priority 1998, dated 2005)
